Assay results from publication PMC9303812, “Asymmetrically Substituted m‐Terphenyl Phosphates Inhibit the Transcription Factor STAT5a” (Chembiochem, 2021).
Read-outs that look alike come from different tables or passages of the source.

Target: T1, STAT5a (Homo sapiens, UniProt P42229)
T1 sequence (P42229 1-794): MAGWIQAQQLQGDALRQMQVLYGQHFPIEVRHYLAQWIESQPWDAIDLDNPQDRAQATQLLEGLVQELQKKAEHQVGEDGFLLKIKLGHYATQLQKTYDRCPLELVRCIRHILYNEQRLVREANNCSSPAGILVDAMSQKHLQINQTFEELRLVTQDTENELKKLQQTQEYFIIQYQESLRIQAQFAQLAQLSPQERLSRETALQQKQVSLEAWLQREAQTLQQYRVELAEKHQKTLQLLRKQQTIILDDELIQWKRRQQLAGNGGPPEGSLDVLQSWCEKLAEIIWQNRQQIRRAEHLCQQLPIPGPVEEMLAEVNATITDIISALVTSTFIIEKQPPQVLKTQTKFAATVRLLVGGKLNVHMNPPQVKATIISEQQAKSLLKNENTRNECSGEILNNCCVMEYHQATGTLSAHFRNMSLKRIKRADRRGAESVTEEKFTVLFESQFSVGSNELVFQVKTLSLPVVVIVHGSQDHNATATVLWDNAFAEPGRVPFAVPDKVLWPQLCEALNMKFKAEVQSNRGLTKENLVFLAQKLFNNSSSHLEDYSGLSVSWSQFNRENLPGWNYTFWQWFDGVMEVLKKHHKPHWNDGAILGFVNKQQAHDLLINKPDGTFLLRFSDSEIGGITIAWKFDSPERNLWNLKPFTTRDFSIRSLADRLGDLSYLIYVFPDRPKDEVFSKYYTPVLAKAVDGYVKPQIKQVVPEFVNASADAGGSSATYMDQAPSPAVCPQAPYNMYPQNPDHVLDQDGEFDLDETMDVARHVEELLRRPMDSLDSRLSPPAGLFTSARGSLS
Experiment: Fluorescence polarization (FP) binding assay, STAT5a
Conditions: for selectivity with respect to other STAT family members: FP assays against STAT1, STAT3, STAT4, STAT6
Protocol: Table S1: Activities of test compounds against STAT5a and STAT5b in FP assays . Experiments were carried out in triplicate (n = 3) unless stated otherwise. n/a: not applicable.
[a]data taken from the literature.[1]
Ki values were calculated from IC50 values using the published equation.[2] […]
Table S2: Activities of 12 against STAT5 proteins in FP assays.
Fluorescence polarization assays
Fluorescence polarization assays were essentially carried out as previously described.[1] These assays quantitate to which extent a test compound is able to interfere with binding between a STAT protein and a fluorescein-labeled phosphotyrosine-containing peptide, which is known to bind to the SH2 domain of the respective STAT protein. The following protein […]
concentrations were used: 100 nM for STAT1, 150 nM for STAT3, 30 nM for STAT4, 180 nM for STAT5a, 90 nM for STAT5b and 105 nM for STAT6. All peptides were used at a concentration of 10 nM. The following peptides were used: 5 -carboxyfluorescein -GpYDKPHVL for STAT1; 5-carboxyfluorescein -GpYLPQTV-NH2 for STAT3; 5-carboxyfluorescein-GpYLPQNID-OH for STAT4; 5-carboxyfluorescein-GpYLVLDKW for STAT5a/b, and 5-carboxyfluorescein-GpYVPWQDLI-OH for STAT6. As a buffer system, 10 mM Tris (pH 8.0), 50 mM NaCl, 1 mM EDTA, 1 mM DTT, 0.1 % Nonidet P-40 substitute, and 2 % DMSO in water was used. All compounds tested were incubated for 1 h with the protein. Subsequently, the fluorescein-labeled peptide was added and the fluorescence polarization was measured with an Infinite F500 plate reader (Tecan) after another hour. IC50 values were converted to Ki-values using the published equation.[2]

SMILES | IC50 [µM] | Ki [µM] | selectivity with respect to other STAT family members | Ki (FP assay, Ki calculated from IC50 (n=3; 6 a n=2), read-out: STAT5a Ki) [µM] | IC50 (FP assay, n=3 (6a n=2), read-out: STAT5a IC50) [µM]
COc1cc(-c2cc(OP(=O)(O)O)cc(-c3cc(F)c(F)c(F)c3)c2)cc(OC)c1OC [6 b] | 22.1 ± 0.4 | 10.9 ± 0.2 | good selectivity | – | –
COc1cc(-c2cc(-c3cc(F)c(F)c(F)c3)cc(C(F)P(=O)(O)O)c2)cc(OC)c1OC (stereo not drawn) [compound 12] | – | – | retains selectivity | 20 ± 2.1 | 40.4 ± 4.3
